Earlier results as cited in the PKSmart pharmacokinetics tables (Seal et al. 2025).

Assays:
[1] = Lombardo et al. 2013, J Clin Pharmacol 53:178, doi 10.1177/0091270012440282; conditions: for Vd / clearance: in vivo, iv; for fraction unbound: plasma
[2] = not given per row; by the article one of three: Lombardo et al. 2013, J Clin Pharmacol 53:178, doi 10.1177/0091270012440282; 'New Drugs at FDA', novel drug approvals for 2021 and 2022 (the article's reference 43); Yap, Li, Chen 2006, J Mol Graph Model 24:383, doi 10.1016; conditions: human; for Vd / clearance / half-life: in vivo; for fraction unbound: plasma

| Structure (SMILES) | clearance [2] [mL/min/kg] | also measured |
| --- | --- | --- |
| [2H]C([2H])([2H])C([2H])([2H])C(C)n1ncn(-c2ccc(N3CCN(c4ccc(OC[C@H]5CO[C@](Cn6cncn6)(c6ccc(Cl)cc6Cl)O5)cc4)CC3)cc2)c1=O (some centres undefined) | 5.1 | Vd ([1]; rat): 5.07 L/kg; clearance ([1]; rat): 9.16 mL/min/kg; fraction unbound ([1]; rat): 0.9; Vd [2]: 7.4 L/kg |
| COCCOCC(CC1(C(=O)NC2CCC(C(=O)O)CC2)CCCC1)C(=O)O (centres undefined) | 2.3 | clearance ([1]; dog): 5.8 mL/min/kg; clearance ([1]; rat): 15 mL/min/kg; fraction unbound ([1]; rat): 0.23; Vd [2]: 0.25 L/kg |
| O=C(O)C1=C(C[n+]2ccc(CCS(=O)(=O)[O-])cc2)CS[C@@H]2C(NC(=O)C(NC(=O)c3nc[nH]c3C(=O)O)c3ccccc3)C(=O)N12 (some centres undefined) | 1.7 | Vd ([1]; dog): 0.2 L/kg; clearance ([1]; dog): 0.6 mL/min/kg; fraction unbound ([1]; dog): 0.07; Vd ([1]; monkey): 0.3 L/kg; clearance ([1]; monkey): 3 mL/min/kg; Vd [2]: 0.21 L/kg |
| COc1ccccc1Oc1c(NS(=O)(=O)c2ccc(C(C)C)cn2)nc(-c2ccnc(-c3nn[nH]n3)c2)nc1OCCO | 9.05 | Vd ([1]; monkey): 0.21 L/kg; clearance ([1]; monkey): 15.6 mL/min/kg; Vd ([1]; rat): 0.27 L/kg; clearance ([1]; rat): 4.3 mL/min/kg |
| CNC(C)C1CCC(N)C(OC2C(N)CC(N)C(OC3OCC(C)(O)C(NC)C3O)C2O)O1 (centres undefined) | 1 | Vd ([1]; dog): 0.33 L/kg; clearance ([1]; dog): 2.1 mL/min/kg; Vd ([1]; rat): 0.33 L/kg; clearance ([1]; rat): 7.8 mL/min/kg |
| CN(C)C1C(=O)C(C(N)=O)=C(O)[C@@]2(O)C(=O)C3=C(O)c4c(O)cccc4[C@@](C)(O)[C@H]3[C@H](O)[C@@H]12 (some centres undefined) | 2 | Vd ([1]; dog): 1.01 L/kg; clearance ([1]; dog): 1.47 mL/min/kg; Vd [2]: 1.7 L/kg |
| COc1ccc2c(c1)N[C@@H]([S@@+](O)Cc1ncc(C)c(OC)c1C)N2 | 3.81 | – |
| Cc1cc2c(s1)Nc1ccccc1N=C2N1CCN(C)CC1 | 5.81 | half-life [2]: 43.5 h; fraction unbound [2]: 0.07 |
| COCc1c(C(=O)OC(C)C)ncc2[nH]c3ccc(OCc4ccccc4)cc3c12 | 13 | – |
| CCN(CC)c1cc(C)n2ncnc2n1 | 3.79 | – |
| O=C(OCCN1CCCCCC1)C(c1ccsc1)C1CCCCC1 (centres undefined) | 18.3 | – |
| CC(C)(C)NC[C@@H](O)c1cc(O)cc(O)c1 | 4 | – |
| C[C@@H]1COc2c(N3CCN(C)CC3)c(F)cc3c(=O)c(C(=O)O)cn1c23 | 2.58 | – |
| CCOC(=O)NC1=C(N2CC2)C(=O)C(NC(=O)OCC)=C(N2CC2)C1=O | 11 | – |
| CON=C(C(=O)NC1C(=O)N2C(C(=O)[O-])C(=C[N+]34CCC(C(N)=O)(CC3)CC4)CSC12)c1nsc(N)n1 (centres undefined) | 1.7 | Vd [2]: 0.27 L/kg |
| CC(=O)OCC1=C(C(=O)O)N2C(=O)C(NC(=O)CSc3ccncc3)[C@@H]2SC1 (some centres undefined) | 6.36 | – |
| CCCCC[C@H](O)CC[C@@H]1C2Cc3cccc(OCC(=O)O)c3C[C@@H]2C[C@@H]1O (some centres undefined) | 7.14 | – |
| CO[C@]1(NC(=O)Cc2cccs2)C(=O)N2C(C(=O)O)=C(COC(N)=O)CS[C@@H]21 | 2.89 | – |
| Cc1ccc(C(=O)c2ccc(CC(=O)O)n2C)cc1 | 1.3 | – |

| Structure (SMILES) | clearance [2] [mL/min/kg] | also measured |
| --- | --- | --- |
| C[C@@H](c1cc2ccccc2s1)N(O)C(N)=O | 7.14 | – |
| C[C@H](NCCC(c1ccccc1)c1ccccc1)c1ccccc1 | 20 | – |
| O[C@@H](c1cc(C(F)(F)F)nc2c(C(F)(F)F)cccc12)[C@@H]1CCCCN1 | 0.41 | – |
| CCN1C[C@@H](CCN2CCOCC2)C(c2ccccc2)(c2ccccc2)C1=O | 5.75 | – |
| C=CC[C@]1([C@H](C)C#CCC)C(=O)NC(=O)N(C)C1=O | 13.3 | – |
| Cc1cccc(C)c1OC[C@@H](C)N | 6.3 | – |
| CCCCCc1cc(O)c2c(c1)OC(C)(C)[C@H]1CCC(C)=C[C@H]21 | 3.33 | – |
| Cc1nc(C)c2c(n1)N(Cc1ccc(-c3ccccc3-c3nnn[nH]3)cc1)C(=O)CC2 | 7.17 | – |
| C[C@@H]1C[C@H]2[C@@H]3C[C@H](F)C4=CC(=O)C=C[C@]4(C)[C@@]3(F)[C@H](O)C[C@]2(C)[C@@]1(O)C(=O)SCF | 15.6 | – |
| CS(=O)(=O)c1ccc([C@H](O)[C@@H](CO)NC(=O)C(Cl)Cl)cc1 | 2.62 | – |
| CCc1ccc(CCOc2ccc(Cc3sc(=O)[nH]c3O)cc2)nc1 | 1.43 | – |
| C[C@@H]1[C@H](c2c(F)ccc(F)c2F)CC(NC(=O)c2cnc3c(c2)C[C@@]2(C3)C(=O)Nc3ncccc32)C(=O)N1CC(F)(F)F (some centres undefined) | 5.28 | Vd [2]: 4.87 L/kg; half-life [2]: 11 h; fraction unbound [2]: 0.05 |
| CC[C@]1(C)CC(=O)NC1=O | 0.19 | – |
| NS(=O)(=O)c1cc2c(cc1Cl)N=CNS2(=O)=O | 4.5 | – |
| O=C(O)C1=C(CSc2nnnn2CS(=O)(=O)O)CS[C@H]2C(NC(=O)C(O)c3ccccc3)C(=O)N12 (some centres undefined) | 0.33 | – |
| CN[C@H]1CCc2[nH]c3ccc(C(N)=O)cc3c2C1 | 3.09 | – |
| CC(=O)OCC(CCn1cnc2cnc(N)nc21)COC(C)=O | 8 | – |
| C=CCN1CCc2nc(N)sc2CC1 | 7.38 | – |
| CC(C(=O)O)c1ccc(-c2ccccc2)c(F)c1 (centres undefined) | 0.35 | – |
